From patent US7879876B2, “Sulfonamide derivatives and use thereof for the modulation of metalloproteinases” (Merck Serono SA, priority 2005, dated 2011)

Tests used:
Assay type in all cases: biochemical
[1] = target: T1, gelatinase A (MMP-2) (Homo sapiens, UniProt P08253); assay: MMP-2 enzyme inhibition assay (coumarin-labelled peptide substrate); details: read-out: IC50 MMP2
T1 sequence (P08253 110-660): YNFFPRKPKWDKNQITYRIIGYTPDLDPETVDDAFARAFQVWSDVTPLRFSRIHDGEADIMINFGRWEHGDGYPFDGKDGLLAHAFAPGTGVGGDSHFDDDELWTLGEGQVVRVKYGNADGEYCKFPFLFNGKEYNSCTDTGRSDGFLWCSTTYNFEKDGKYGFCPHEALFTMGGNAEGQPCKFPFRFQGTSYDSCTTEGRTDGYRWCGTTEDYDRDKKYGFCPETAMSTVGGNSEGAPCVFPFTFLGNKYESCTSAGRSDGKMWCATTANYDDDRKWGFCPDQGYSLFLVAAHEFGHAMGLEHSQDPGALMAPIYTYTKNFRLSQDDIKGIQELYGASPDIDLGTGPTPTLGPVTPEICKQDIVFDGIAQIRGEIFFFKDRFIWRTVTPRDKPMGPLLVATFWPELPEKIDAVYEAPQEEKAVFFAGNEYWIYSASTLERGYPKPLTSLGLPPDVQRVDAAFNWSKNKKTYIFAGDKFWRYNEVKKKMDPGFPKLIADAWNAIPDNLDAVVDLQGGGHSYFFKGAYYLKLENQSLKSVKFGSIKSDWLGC
Procedure: Compounds of the invention were tested to assess their activities as inhibitors of MMP-1, MMP-2, MMP-9, MMP-14, MMP-12 and TACE. MMP-9 Assay Protocol […]
(§1) Stock solutions were made up as follows: Assay Butter: 100 mM Tris-HCl pH 7.6 containing 100 mM NaCl, 10 mM CaCl2, and 0.05% Brij 35.
Substrate: 0.4 mM McaPLGLDpaAR (from Bachem) (0.437 mg/ml) stock solution in 100% DMSO (stored at −20° C.). Dilute to 8 μM in assay butter. […]
(§2) Test Compounds were prepared initially as 10 mM compound solution in 100% DMSO, diluted to 1 mM in 100% DMSO, then serially diluted 3-fold in 100% DMSO across columns 1-10 of a 96-well microtitre plate Assay concentration range, 100 μM (column 1) to 5.1 nM (column 10).
(§3) The assay was performed in a total volume of 100 μL per well in 96-well microtitre plates. Activated enzyme (20 μL) was added to the wells followed by 20 μL of assay butter. Appropriate concentrations of test compounds dissolved in 10 μL of DMSO were then added followed by 50 μL of McaPLGLDpaAR (8 μM, prepared by dilution of DMSO stock in assay butter). For each as say ten concentrations of test compound were examined in duplicate. Control wells lack either enzyme or test compound. The reactions were incubated at 37° C. for 2 hours. The fluorescence at 405 nm was measured immediately with an SLT Fluostar fluorometer (SL T Labinstruments GmbH, Grödig, Austria) using 320 nm excitation, without stopping the reaction.
(§4) The effect of the test compound was determined from the dose response curve generated by the 10 duplicate concentrations of inhibitor. The IC50 (the concentration of compound required to give a 50% decrease in enzyme activity) was obtained by fitting data to the equation, Y=a+((b−a)/(1+(c/X)^d)). (Y=inhibition achieved for a particular dose; X=the dose in nM; a=minimum y or zero % inhibition; b=maximum y or 100% inhibition; c=is the IC50; d=is the slope). The result was rounded to one significant figure.
(§5) Compounds of the invention were tested for inhibitory activity against gelatinase A (MMP-2) in an assay using a coumarin-labelled peptide substrate, (7-methoxycoumarin-4-yl)acetyl-Pro-Leu-Gly-Leu-(3-[2,4-dinitrophenyl]-L-2,3diaminopropionyl)-Ala-Arg-NH2 (Mca PLGLDpaAR) (Knight et al, 1992, above). The protocol for this assay was as described for the MMP-9 assay above.

[2] = target: metalloelastase (MMP-12) (Homo sapiens, UniProt P39900); assay: MMP-12 enzyme inhibition assay (coumarin-labelled peptide substrate); details: read-out: IC50 MMP12
metalloelastase (MMP-12), sequence (P39900 106-470): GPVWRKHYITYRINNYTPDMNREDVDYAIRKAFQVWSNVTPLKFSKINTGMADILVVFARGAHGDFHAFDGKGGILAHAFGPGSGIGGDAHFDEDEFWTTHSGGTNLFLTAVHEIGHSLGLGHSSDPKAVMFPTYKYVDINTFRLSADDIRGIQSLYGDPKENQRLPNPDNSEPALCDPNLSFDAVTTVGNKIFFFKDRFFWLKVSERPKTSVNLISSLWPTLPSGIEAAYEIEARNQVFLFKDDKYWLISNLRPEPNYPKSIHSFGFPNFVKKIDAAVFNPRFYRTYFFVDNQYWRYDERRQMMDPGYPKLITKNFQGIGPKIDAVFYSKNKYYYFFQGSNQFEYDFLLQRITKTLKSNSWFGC
Procedure: (§6) Compounds of the invention were tested to assess their activities as inhibitors of MMP-1, MMP-2, MMP-9, MMP-14, MMP-12 and TACE. MMP-9 Assay Protocol
(§7) Compounds of the invention were tested for inhibitory activity against 92 kDa gelatinase (MMP-9) in an assay using a coumarin-labeled peptide substrate, (7-methoxycoumarin-4-yl)acetyl-Pro-Leu-Gly-Leu-(3-[2,4-dinitrophenyl]-L-2,3diaminopropionyl)-Ala-Arg-NH2 (McaPLGLDpaAR) (Knight et al, FEBS Lett. 1992; 263-266).
as §1
(§8) Substrate: 0.4 mM McaPLGLDpaAR (from Bachem) (0.437 mg/ml) stock solution in 100% DMSO (stored at −20° C.). Dilute to 8 μM in assay butter.
(§9) Enzyme: Recombinant human 92 kDa gelatinase (MMP-9; APMA (4-aminophenyl mercuric acetate)-activated if necessary) appropriately diluted in assay butter.
as §2, §3, §4
Compounds of the invention were tested for inhibitory activity against metalloelastase (MMP-12) in an assay using a coumarin-labelled peptide substrate, (7-methoxycoumarin-4-yl)acetyl-Pro-Leu-Gly-Leu-(3-[2,4-dinitrophenyl]-L-2,3-diaminopropionyl)-Ala-Arg-NH2 (McaPLGLDpaAR) (Knight et al, 1992, above). The protocol for this assay was as described for the MMP-9 assay above.

[3] = target: MMP-14 (Homo sapiens, UniProt P50281); assay: MMP-14 enzyme inhibition assay (coumarin-labelled peptide substrate); details: for inhibition at 0.1 µM / inhibition at 5 µM: read-out: percentage inhibition MMP14; for IC50: read-out: IC50 MMP14
Procedure: as §6, §7, §1, §8, §9, §2, §3, §4
as §5, with “MMP-14” for “gelatinase A (MMP-2)”, “PLGLD paAR)” for “PLGLDpaAR)”

Row | SMILES | IC50 [1] [nM] | IC50 [2] [nM] | inhibition at 0.1 µM [3] [%] | inhibition at 5 µM [3] [%] | IC50 [3] [nM]
1 | CC(C)(C)OC(=O)N1CCC[C@@H]1[C@@H](CS(=O)(=O)N1CCc2cc(Cl)c(Cl)cc2C1)N(O)C=O (racemic) [Example 44, tert-butyl (2RS)-2-{(1SR)-2-[(6,7-dichloro-3,4-dihydro-isoquinolin-2(1H)-yl)sulfonyl]-1-[formyl(hydroxy)amino]ethyl}pyrrolidine-1-carboxylate] | 91 | 7 | 5 | 83 | –
2 | O=CN(O)C(CCc1ccccc1)CS(=O)(=O)N1CCc2ccccc2C1 (centres unmarked) [Example 1, N-{1-[(3,4-dihydroisoquinolin-2(1H)-ylsulfonyl)methyl]-3-phenylpropyl}-N-hydroxyformamide] | 95 | 27 | – | – | > 5000
3 | CC1(C)OC[C@H](C(CS(=O)(=O)N2CCc3ccccc3C2)N(O)C=O)O1 (stereo partly drawn) [Example 2, N-{2-(3,4-dihydroisoquinolin-2(1H)-ylsulfonyl)-1-[(4S)-2,2-dimethyl-1,3-dioxolan-4-yl]ethyl}-N-hydroxyformamide] | 530 | 14 | – | – | > 5000
4 | CCCCCC(CS(=O)(=O)N1CCc2ccccc2C1)N(O)C=O (centres unmarked) [Example 3, N-{1-[(3,4-dihydroisoquinolin-2(1H)-ylsulfonyl)methyl]hexyl}-N-hydroxyformamide] | 676 | 14 | – | 67 | –
5 | O=CN(O)C(CS(=O)(=O)N1CCc2ccccc2C1)C1CC1 (centres unmarked) [Example 4, N-[1-cyclopropyl-2-(3,4-dihydroisoquinolin-2(1H)-ylsulfonyl)ethyl]-N-hydroxyformamide] | 653 | 65 | – | 29 | –
6 | O=CN(O)C(CCc1ccccc1)CS(=O)(=O)N1Cc2ccccc2C1 (centres unmarked) [Example 6, N-{1-[(1,3-dihydro-2H-isoindol-2-ylsulfonyl)methyl]-3-phenylpropyl}-N-hydroxyformamide] | 323 | 9 | – | – | 865
7 | O=CN(O)C(CS(=O)(=O)N1CCc2ccccc2C1)c1cncnc1 (centres unmarked) [Example 9, N-[2-(3,4-dihydroisoquinolin-2(1H)-ylsulfonyl)-1-pyrimidin-5-ylethyl]-N-hydroxyformamide] | > 5000 | 49 | – | 61 | –
8 | O=CN(O)C(CS(=O)(=O)N1CCc2ccccc2C1)c1cccnc1 (centres unmarked) [Example 10, N-[2-(3,4-dihydroisoquinolin-2(1H)-ylsulfonyl)-1-pyridin-3-ylethyl]-N-hydroxyformamide] | > 5000 | 13 | – | 36 | –
9 | COc1cc2c(cc1OC)CN(S(=O)(=O)CC(CCc1ccccc1)N(O)C=O)CC2 (centres unmarked) [Example 12, N-(1-{[(6,7-dimethoxy-3,4-dihydroisoquinolin-2(1H)-yl)sulfonyl]methyl}-3-phenylpropyl)-N-hydroxyformamide] | > 5000 | 92 | – | 0 | –
10 | COc1ccc(C(CS(=O)(=O)N2CCc3ccccc3C2)N(O)C=O)cn1 (centres unmarked) [Example 13, N-[2-(3,4-dihydroisoquinolin-2(1H)-ylsulfonyl)-1-(6-methoxypyridin-3-yl)ethyl]-N-hydroxyformamide] | > 5000 | 10 | – | 64 | –
11 | COc1cc2c(cc1OC)CN(S(=O)(=O)CC([C@H]1COC(C)(C)O1)N(O)C=O)CC2 (stereo partly drawn) [Example 14, N-{2-[(6,7-dimethoxy-3,4-dihydroisoquinolin-2(1H)-yl)sulfonyl]-1-[(4S)-2,2-dimethyl-1,3-dioxolan-4-yl]ethyl}-N-hydroxyformamide] | > 5000 | 41 | – | 0 | –
12 | CC1(C)OC[C@H](C(CS(=O)(=O)N2Cc3ccccc3C2)N(O)C=O)O1 (stereo partly drawn) [Example 16, N-{2-(1,3-dihydro-2H-isoindol-2-ylsulfonyl)-1-[(4S)-2,2-dimethyl-1,3-dioxolan-4-yl]ethyl}-N-hydroxyformamide] | 78 | 12 | 0 | 80 | –
13 | CC(C)c1ccc2c(c1)CCN(S(=O)(=O)CC([C@H]1COC(C)(C)O1)N(O)C=O)C2 (stereo partly drawn) [Example 18, N-{1-[(4S)-2,2-dimethyl-1,3-dioxolan-4-yl]-2-[(6-isopropyl-3,4-dihydroisoquinolin-2(1H)-yl)sulfonyl]ethyl}-N-hydroxyformamide] | 5 | 1.4 | 13 | 95 | –
14 | CC1(C)OC[C@H](C(CS(=O)(=O)N2CCc3ccc(Cl)cc3C2)N(O)C=O)O1 (stereo partly drawn) [Example 19, N-{2-[(7-chloro-3,4-dihydroisoquinolin-2(1H)-yl)sulfonyl]-1-[(4S)-2,2-dimethyl-1,3-dioxolan-4-yl]ethyl}-N-hydroxyformamide] | 10 | 6 | 10 | 81 | –
15 | O=CN(O)C(CS(=O)(=O)N1CCc2ccc(Cl)cc2C1)C1CCCC1 (centres unmarked) [Example 21, N-{2-[(7-chloro-3,4-dihydroisoquinolin-2(1H)-yl)sulfonyl]-1-cyclopentylethyl}-N-hydroxyformamide] | 103 | 19 | – | 45 | –
16 | O=CN(O)[C@@H](CS(=O)(=O)N1CCc2ccc(Cl)cc2C1)[C@H]1CCCO1 [Example 22, N-{(1R)-2-[(7-chloro-3,4-dihydroisoquinolin-2(1H)-yl)sulfonyl]-1-[(2R)-tetrahydrofuran-2-yl]ethyl}-N-hydroxyformamide] | 470 | 210 | – | 0 | –
17 | O=CN(O)[C@H](CS(=O)(=O)N1CCc2ccc(Cl)cc2C1)[C@H]1CCCO1 [Example 23, N-{(1S)-2-[(7-chloro-3,4-dihydroisoquinolin-2(1H)-yl)sulfonyl]-1-[(2R)-tetrahydrofuran-2-yl]ethyl}-N-hydroxyformamide] | 27 | 28 | 7 | 72 | –
18 | COc1cc2c(cc1OC)CN(S(=O)(=O)CC([C@H](O)CO)N(O)C=O)CC2 (stereo partly drawn) [Example 24, N-((2S)-1-{[(6,7-dimethoxy-3,4-dihydroisoquinolin-2(1H)-yl)sulfonyl]methyl}-2,3-dihydroxypropyl)-N-hydroxyformamide] | > 5000 | 300 | – | 0 | –
